Assay [1] has as its target Vascular endothelial growth factor receptor 1 (Homo sapiens) (UniProt P17948). Kind of assay: Inhibition of human recombinant FLT1 at 15 nM in presence of ATP by radiometric assay relative to control.
In assay [2] the target is Myosin light chain kinase, smooth muscle (Homo sapiens) (UniProt Q15746). Nature of the assay: Inhibition of human recombinant smMLCK at 15 nM in presence of ATP by radiometric assay relative to control.
Assay [3] has as its target Calcium/calmodulin-dependent protein kinase type 1G (Homo sapiens) (UniProt Q96NX5). Kind of assay: Inhibition of human recombinant CaMK1g at 15 nM related to control ULK1.
The target of assay [4] is T1, Myotonin-protein kinase (Homo sapiens) (UniProt Q09013).
T1 sequence (whole entry): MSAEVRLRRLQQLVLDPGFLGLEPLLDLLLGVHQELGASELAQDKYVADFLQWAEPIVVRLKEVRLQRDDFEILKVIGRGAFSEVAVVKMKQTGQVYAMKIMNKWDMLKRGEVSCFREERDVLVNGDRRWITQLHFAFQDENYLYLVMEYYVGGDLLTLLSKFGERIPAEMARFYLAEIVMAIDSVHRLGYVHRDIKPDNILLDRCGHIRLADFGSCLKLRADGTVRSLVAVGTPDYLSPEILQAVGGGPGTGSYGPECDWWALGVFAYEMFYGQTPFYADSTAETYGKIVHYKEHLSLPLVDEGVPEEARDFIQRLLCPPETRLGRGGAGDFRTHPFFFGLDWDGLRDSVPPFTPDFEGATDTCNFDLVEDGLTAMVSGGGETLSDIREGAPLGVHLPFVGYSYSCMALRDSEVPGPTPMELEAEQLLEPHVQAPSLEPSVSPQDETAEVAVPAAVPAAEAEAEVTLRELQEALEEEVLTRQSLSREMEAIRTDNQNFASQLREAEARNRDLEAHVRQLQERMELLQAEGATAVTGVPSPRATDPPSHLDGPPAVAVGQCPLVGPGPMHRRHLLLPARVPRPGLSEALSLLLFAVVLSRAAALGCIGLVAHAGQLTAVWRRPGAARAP
Kind of assay: Inhibition of human recombinant DMPK1 at 15 nM related to control ULK1.

Assay [5] addresses Leucine-rich repeat serine/threonine-protein kinase 2 (Homo sapiens) (UniProt Q5S007). Nature of the assay: Inhibition of human recombinant LRRK2 at 40 nM related to control ULK1.
The target of assay [6] is Protein kinase C beta type (Homo sapiens) (UniProt P05771). Kind of assay: Inhibition of human recombinant PKCb at 40 nM related to control ULK1.
In assay [7] the target is Serine/threonine-protein kinase mTOR (Homo sapiens) (UniProt P42345). Nature of the assay: Inhibition of human recombinant FRAP at 500 nM in presence of ATP by radiometric assay relative to control.
Assay [8] addresses Serine/threonine-protein kinase pim-3 (Homo sapiens) (UniProt Q86V86). Nature of the assay: Inhibition of human recombinant PIM3 at 500 nM in presence of ATP by radiometric assay relative to control.
Assay [9] addresses T2, Ephrin type-B receptor 1 (Homo sapiens) (UniProt P54762).
T2 sequence (whole entry): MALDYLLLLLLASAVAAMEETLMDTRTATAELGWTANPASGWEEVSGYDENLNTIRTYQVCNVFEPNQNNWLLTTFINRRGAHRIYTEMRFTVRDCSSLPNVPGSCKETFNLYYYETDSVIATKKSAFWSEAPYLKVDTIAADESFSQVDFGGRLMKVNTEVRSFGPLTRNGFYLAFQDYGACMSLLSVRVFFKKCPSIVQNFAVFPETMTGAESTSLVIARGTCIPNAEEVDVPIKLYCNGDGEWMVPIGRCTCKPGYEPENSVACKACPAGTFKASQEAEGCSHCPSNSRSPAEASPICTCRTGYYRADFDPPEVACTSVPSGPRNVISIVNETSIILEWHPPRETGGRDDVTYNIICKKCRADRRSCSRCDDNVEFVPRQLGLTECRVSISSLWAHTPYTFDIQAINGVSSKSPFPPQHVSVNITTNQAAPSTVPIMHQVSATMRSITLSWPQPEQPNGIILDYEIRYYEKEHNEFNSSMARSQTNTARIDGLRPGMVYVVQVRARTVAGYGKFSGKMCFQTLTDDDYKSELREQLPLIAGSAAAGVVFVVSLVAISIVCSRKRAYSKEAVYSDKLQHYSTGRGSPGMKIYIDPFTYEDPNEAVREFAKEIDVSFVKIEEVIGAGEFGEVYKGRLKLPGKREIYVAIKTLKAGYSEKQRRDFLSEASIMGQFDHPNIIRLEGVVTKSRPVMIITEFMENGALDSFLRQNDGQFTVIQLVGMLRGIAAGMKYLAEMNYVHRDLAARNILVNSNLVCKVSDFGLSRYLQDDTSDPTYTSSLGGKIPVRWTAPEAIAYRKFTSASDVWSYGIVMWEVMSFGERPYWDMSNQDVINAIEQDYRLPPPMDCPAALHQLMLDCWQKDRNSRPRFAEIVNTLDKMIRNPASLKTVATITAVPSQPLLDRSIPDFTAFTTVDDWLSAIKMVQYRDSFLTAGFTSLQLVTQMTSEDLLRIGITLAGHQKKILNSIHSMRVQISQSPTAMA
Kind of assay: Inhibition of human recombinant EphB1 at 500 nM related to control ULK1.

Assay [10] addresses Mitogen-activated protein kinase kinase kinase 9 (Homo sapiens) (UniProt P80192). Kind of assay: Inhibition of human recombinant MLK1 at 500 nM related to control ULK1.

SMILES strings stand for the structures.

Calcium/calmodulin-dependent protein kinase type 1G (Homo sapiens), sequence (Q96NX5 whole entry): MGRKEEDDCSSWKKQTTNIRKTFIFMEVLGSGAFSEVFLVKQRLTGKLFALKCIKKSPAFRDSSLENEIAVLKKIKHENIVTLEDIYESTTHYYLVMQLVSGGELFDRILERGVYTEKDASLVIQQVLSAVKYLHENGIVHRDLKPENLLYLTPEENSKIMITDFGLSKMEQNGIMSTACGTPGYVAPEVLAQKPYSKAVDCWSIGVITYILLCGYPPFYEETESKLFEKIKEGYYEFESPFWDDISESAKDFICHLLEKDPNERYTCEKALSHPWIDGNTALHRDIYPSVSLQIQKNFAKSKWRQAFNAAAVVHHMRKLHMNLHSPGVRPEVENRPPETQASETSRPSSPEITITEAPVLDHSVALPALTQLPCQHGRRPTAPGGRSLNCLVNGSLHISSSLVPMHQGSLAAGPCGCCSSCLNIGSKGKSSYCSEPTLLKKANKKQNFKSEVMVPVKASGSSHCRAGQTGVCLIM
Protein kinase C beta type (Homo sapiens), sequence (P05771 2-671 limits assumed): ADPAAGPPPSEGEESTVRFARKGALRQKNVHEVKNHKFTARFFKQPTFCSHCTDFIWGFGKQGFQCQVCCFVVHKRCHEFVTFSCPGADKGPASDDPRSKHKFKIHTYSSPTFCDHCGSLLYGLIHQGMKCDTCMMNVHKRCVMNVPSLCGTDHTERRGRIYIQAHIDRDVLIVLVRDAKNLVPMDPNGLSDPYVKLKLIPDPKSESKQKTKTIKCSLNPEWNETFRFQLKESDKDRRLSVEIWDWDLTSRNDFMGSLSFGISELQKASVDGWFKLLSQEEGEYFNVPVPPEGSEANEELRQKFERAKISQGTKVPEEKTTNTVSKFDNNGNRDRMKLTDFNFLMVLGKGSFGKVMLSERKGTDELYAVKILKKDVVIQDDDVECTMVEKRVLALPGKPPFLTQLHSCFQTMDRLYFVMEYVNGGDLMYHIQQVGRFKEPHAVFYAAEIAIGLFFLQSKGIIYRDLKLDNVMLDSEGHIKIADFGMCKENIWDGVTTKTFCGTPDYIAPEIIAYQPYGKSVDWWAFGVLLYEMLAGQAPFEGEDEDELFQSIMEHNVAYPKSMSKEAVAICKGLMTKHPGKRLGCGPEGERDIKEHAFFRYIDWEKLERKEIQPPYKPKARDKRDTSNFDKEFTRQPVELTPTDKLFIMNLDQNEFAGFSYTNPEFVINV
Leucine-rich repeat serine/threonine-protein kinase 2 (Homo sapiens), sequence (Q5S007 whole entry): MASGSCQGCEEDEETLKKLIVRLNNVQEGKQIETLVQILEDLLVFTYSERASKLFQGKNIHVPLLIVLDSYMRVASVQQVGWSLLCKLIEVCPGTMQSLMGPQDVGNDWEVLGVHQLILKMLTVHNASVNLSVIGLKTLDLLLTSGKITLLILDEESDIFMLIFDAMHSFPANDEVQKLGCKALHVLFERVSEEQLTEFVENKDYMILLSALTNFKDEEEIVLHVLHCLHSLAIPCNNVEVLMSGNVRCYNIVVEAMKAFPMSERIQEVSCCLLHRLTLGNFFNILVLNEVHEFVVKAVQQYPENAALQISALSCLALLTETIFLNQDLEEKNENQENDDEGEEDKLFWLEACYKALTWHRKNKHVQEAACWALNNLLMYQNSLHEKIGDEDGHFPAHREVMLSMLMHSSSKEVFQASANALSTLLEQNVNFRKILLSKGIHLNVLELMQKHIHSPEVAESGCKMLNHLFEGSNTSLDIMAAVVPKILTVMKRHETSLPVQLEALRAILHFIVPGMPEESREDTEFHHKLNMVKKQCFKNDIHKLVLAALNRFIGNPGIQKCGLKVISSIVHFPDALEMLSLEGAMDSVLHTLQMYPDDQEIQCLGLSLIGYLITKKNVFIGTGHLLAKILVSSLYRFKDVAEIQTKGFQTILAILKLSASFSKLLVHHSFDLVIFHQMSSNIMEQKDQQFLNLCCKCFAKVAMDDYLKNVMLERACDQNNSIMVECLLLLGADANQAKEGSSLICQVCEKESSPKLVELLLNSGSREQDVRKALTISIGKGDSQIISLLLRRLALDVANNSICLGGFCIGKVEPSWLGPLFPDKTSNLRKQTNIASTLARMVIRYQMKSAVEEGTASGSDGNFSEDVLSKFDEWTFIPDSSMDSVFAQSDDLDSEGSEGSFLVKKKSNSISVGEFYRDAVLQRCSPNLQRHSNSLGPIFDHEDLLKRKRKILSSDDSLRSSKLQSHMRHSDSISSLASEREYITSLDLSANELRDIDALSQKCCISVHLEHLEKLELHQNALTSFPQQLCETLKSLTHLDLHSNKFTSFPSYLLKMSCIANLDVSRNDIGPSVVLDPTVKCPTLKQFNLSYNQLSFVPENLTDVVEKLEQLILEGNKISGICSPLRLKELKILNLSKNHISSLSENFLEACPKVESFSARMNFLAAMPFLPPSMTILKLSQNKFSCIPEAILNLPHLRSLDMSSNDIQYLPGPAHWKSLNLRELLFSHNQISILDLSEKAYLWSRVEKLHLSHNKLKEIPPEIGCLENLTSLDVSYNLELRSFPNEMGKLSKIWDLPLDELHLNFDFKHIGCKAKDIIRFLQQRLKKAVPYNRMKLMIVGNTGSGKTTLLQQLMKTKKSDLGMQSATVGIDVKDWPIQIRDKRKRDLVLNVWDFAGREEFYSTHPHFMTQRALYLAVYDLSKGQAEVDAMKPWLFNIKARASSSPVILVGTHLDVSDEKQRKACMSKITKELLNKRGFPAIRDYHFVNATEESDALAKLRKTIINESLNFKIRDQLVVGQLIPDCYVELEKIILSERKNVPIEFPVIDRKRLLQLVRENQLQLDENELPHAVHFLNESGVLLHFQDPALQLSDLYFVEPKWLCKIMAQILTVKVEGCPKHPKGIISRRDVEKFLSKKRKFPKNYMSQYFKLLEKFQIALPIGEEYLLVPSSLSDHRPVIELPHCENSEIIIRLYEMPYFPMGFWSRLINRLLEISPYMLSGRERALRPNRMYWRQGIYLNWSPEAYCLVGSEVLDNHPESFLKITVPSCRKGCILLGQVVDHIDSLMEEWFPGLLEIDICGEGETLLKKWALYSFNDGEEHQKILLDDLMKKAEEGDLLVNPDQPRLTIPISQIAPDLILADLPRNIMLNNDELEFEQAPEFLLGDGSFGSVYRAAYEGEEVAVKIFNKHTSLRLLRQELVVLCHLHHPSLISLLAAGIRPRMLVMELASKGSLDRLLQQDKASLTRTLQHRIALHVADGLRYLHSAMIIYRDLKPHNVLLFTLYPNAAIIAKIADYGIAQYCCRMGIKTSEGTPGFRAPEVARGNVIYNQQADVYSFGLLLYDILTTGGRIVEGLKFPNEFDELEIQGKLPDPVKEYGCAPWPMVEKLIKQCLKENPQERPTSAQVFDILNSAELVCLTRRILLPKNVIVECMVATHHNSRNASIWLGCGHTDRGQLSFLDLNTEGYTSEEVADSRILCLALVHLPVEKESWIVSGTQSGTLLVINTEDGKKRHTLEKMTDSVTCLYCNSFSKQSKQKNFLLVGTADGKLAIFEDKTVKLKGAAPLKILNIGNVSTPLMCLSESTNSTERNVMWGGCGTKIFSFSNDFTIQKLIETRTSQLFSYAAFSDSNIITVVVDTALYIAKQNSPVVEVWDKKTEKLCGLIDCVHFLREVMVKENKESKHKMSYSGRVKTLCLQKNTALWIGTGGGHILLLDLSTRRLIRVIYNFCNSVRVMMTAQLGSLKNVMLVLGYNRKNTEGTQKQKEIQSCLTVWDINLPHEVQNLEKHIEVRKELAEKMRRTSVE
Mitogen-activated protein kinase kinase kinase 9 (Homo sapiens), sequence (P80192 whole entry, looked up): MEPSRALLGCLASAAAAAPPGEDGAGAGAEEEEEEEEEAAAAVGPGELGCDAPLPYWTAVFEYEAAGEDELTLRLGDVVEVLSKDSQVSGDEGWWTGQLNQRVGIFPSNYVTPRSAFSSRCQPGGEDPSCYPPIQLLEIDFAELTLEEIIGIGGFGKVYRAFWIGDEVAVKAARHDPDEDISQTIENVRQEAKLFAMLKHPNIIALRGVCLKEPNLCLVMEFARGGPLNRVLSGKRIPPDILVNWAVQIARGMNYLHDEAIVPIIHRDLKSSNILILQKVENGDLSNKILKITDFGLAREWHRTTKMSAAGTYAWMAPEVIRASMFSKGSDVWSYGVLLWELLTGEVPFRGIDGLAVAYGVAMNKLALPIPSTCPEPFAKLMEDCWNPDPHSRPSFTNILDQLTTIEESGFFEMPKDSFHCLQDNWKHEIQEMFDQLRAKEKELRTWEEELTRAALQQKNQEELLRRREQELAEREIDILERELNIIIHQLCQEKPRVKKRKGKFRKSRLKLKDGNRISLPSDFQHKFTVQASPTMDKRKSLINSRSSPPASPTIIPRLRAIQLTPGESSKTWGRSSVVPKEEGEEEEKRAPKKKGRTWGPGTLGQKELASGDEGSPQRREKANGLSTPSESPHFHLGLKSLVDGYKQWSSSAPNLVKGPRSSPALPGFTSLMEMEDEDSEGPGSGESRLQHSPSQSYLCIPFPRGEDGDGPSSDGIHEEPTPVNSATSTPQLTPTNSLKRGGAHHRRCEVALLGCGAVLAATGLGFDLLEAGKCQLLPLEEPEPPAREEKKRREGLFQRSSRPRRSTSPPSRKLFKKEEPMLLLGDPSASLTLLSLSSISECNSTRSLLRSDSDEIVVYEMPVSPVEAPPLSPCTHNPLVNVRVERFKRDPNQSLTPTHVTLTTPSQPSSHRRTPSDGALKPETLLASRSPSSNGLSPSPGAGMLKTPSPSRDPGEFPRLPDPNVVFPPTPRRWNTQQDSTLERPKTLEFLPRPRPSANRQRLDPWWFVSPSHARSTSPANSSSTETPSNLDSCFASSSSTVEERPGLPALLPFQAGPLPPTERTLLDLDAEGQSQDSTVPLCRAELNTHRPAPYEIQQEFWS

Regarding `CC(C)[C@H](NC(=O)c1cc(-c2cnn3cc(-c4ccc(OCCN5CCCCC5)cc4)cnc23)cs1)C(F)(F)F`, the inhibition (commonly the relative decrease from the control value, in per cent) in assay [1] was determined as 9%; in [2], 0%. The fold change (FC) in assay [3] and in assay [4] was 0 throughout.
In the case of `O=C(N[C@@H](C1CC1)C(F)(F)F)c1cc(-c2cnn3cc(-c4ccc(F)cc4)cnc23)cs1`, the fold change (FC) in assay [5] and in [6] was 0.04 throughout.
`CNC(=O)c1ccccc1Oc1nc(Nc2cc(OC)c(OC)c(OC)c2)ncc1Br`: the inhibition in assay [7] and in assay [8] was 0% in each case. For the same compound, the fold change (FC) in assay [9] stood at 0.14; in assay [10], 1.18.

The values are drawn from ChEMBL document CHEMBL5653631, “A Potent and Selective ULK1 Inhibitor Suppresses Autophagy and Sensitizes Cancer Cells to Nutrient Stress” (iScience, 2018).
